One block for each compound: values may come before it.
Assays:
[1] = molecular target: T1, GATOR2-Sestrin2 interaction (Homo sapiens, UniProt P58004); assay: Sestrin2-GATOR2 interaction in HEK-293T cells after starvation/restimulation (co-immunoprecipitation); assay type: cell-based
T1 construct: To isolate the FLAG-WDR24/endogenous-Sestrin2 complex; endogenous in cells; host or cells: HEK-293T cells stably expressing FLAG-WDR24; Sestrin2 and the other GATOR2 subunits are endogenous
T1 sequence (P58004 1-480): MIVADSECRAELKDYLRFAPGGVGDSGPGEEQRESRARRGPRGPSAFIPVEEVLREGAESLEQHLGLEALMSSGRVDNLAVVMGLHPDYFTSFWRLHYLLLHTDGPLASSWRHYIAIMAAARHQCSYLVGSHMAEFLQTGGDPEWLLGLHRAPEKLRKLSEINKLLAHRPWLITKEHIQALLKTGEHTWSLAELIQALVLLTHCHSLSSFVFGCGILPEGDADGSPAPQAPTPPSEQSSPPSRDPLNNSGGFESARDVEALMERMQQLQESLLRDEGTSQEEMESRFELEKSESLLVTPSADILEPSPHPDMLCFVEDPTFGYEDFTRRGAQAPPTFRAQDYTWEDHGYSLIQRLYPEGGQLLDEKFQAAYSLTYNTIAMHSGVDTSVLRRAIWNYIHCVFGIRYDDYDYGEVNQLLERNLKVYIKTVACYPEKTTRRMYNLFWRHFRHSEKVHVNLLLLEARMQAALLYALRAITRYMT
Method: (§1) In order to determine the effect of amino acids on the GATOR2-Sestrin interaction, transfected cells were incubated in amino acid free RPMI for 50 minutes and then stimulated with amino acids for 10 minutes. For glucose starvation, cells were incubated in RPMI media lacking glucose but containing amino acids and dialyzed serum for 50 minutes, followed by a 10 minute restimulation with 5 mM D-Glucose. For insulin deprivation, cells were incubated in RPMI without serum for 50 minutes and restimulated with 1 μg/ml insulin for 10 minutes. Finally, when Torin1 or Rapamycin was used, cells were incubated with 250 nM of each throughout the starvation and restimulation period.
HEK-293T cells stably expressing FLAG-WDR24 or the control protein FLAG-metap2 (as described in Example 1) were starved for leucine, arginine, or all amino acids for 50 minutes. In some samples, cells were re-stimulated with leucine, arginine, or all amino acids for 10 minutes and then FLAG immunoprecipitates prepared from cell lysates. Immunoprecipitates and lysates were analyzed by immunoblotting for indicated proteins. Removal of either leucine or arginine from the cell media inhibited mTORC1 signaling, as indicated by S6K1 phosphorylation, to similar extents. Strikingly, however, only leucine starvation caused Sestrin2 to bind to GATOR2 inducing the interaction as effectively as complete amino acid starvation (FIG. 9A). […] Leucine starvation and stimulation also strongly regulated the interaction of endogenous Sestrin1, but not endogenous Sestrin3, with GATOR2 (Figure not shown).

[2] = molecular target: T2, Sestrin-GATOR2 interaction (Homo sapiens, UniProt P58004); assay: Effect of specific amino acids on Sestrin-GATOR2 interaction (FLAG-WDR24 immunoprecipitation, immunoblot); assay type: cell-based; conditions: HEK-293T stably expressing FLAG-WDR24; starvation/restimulation, pre- or post-lysis addition, washes of immunoprecipitates
T2 construct: To isolate the FLAG-WDR24/endogenous-Sestrin2 complex; endogenous in cells; host or cells: HEK-293T cells stably expressing FLAG-WDR24; Sestrin2 and the other GATOR2 subunits are endogenous
T2 sequence (P58004 1-480): T1 sequence (P58004 1-480)
Method: In order to further explore if specific amino acid levels affected the Sestrin-GATOR2 interaction, HEK-293T cells stably expressing the FLAG-tagged GATOR2 component WDR24 (and FLAG-tagged metap2 as a control) were starved of either all amino acids (ALL); only leucine, arginine, and lysine (LRK); only leucine (L); only arginine (R); or only lysine (K) for 50 minutes, or starved for 50 minutes and restimulated for 10 minutes with the indicated amino acids.
HEK-293T cells stably expressing the FLAG-tagged GATOR2 component WDR24 were starved of all amino acids for 50 minutes. Individual amino acids were added pre-lysis to the cell culture media or post-lysis to cell lysates prior to FLAG immunoprecipitation.
Finally, HEK-293T cells stably expressing the FLAG-tagged GATOR2 component WDR24 were starved of all amino acids for 50 minutes. Immunoprecipitates were subjected to washes containing the indicated amounts of leucine or arginine and analyzed along with cell lysates by immunoblotting for the indicated proteins as shown in FIG. 8C.

Sestrin2 = molecular target: T3, Sestrin2 (Homo sapiens, UniProt P58004); assay: [3H]-labeled amino acid binding to FLAG-Sestrin2 immunoprecipitated from HEK-293T cells; conditions: for Ki: 10 μM 3H-leucine, three experiments, read-out: inhibitory constant (Ki) for competing leucine binding to Sestrin2; for affinity for Sestrin2, times lower than the affinity of leucine: relative to leucine Kd
T3 construct: expressed in transfected cells; host or cells: HEK-293T, transient transfection of a pRK5-based cDNA plasmid, anti-FLAG immunoprecipitation
T3 sequence (P58004 1-480): T1 sequence (P58004 1-480)
Method: Four million HEK-293T cells were plated in a 15 cm plate four days prior to the experiment. Each plate yielded the protein for one sample. Forty-eight hours after plating, the cells were transfected via the polyethylenimine method (O. Boussif et al., PNAS (USA), 92:7297-7301 (1995)) with the pRK5-based cDNA expression plasmids indicated in the figures in the following amounts: 5 μgFLAG-Sestrin2; 12 μg of the negative control Rap2A; 5 μg WDR24; 2 μg WDR24 with 4 μg each of HA-Seh1L, HA-Sec13, HA-Mios, and HA-WDR59; 12 […] (CG11299-PD); 12 μgFLAG-Sestrin1.1; 12 μg FLAG-Sestrin1.2; 12 μg FLAG-Sestrin3; 12 μg FLAG-Sestrin2 mutants (L261A, E451A, S190A) and up to 20 μg total DNA with empty-PRK5. Forty-eight hours after transfection cells were lysed as described in Example 1. If multiple samples of the same type were represented in the experiment, the cell lysates were combined, mixed, and evenly distributed amongst the relevant tubes, to ensure equal protein amounts across samples of the same type.
Anti-FLAG immunoprecipitates were prepared as previously described, with the exception that, prior to incubation with lysates, the beads were blocked by rotating in 1 μg/μl bovine serum albumin (BSA) for 20 minutes at 4° C. and subsequently washed twice in lysis buffer. Thirty μl of the 50/50 slurry of beads in lysis buffer was added to each of the clarified cell lysates and incubated as previously described in Example 1.
For the binding assays, two tubes at a time were washed as previously indicated for immunoprecipitations. All the liquid was subsequently aspirated and a 15 μl aliquot of proteins bound to the beads was incubated for one hour on ice in cytosolic buffer (0.1% Triton, 40 mM HEPES pH 7.4, 10 mM NaCl, 150 mM KCl, 2.5 mM MgCl2) with the appropriate amount of [^3H]-labeled amino acids and unlabeled amino acids. Tubes were flicked every five minutes. At the end of one hour, the beads were briefly spun down, aspirated dry, and rapidly washed three times with binding wash buffer (0.1% Triton, 40 mM HEPES pH 7.4, 150 mM NaCl). The beads were aspirated dry again and resuspended in 85 μl of binding wash buffer. With a cut tip, each sample was mixed well and three 10 μl aliquots were separately quantified using a TriCarb® scintillation counter (PerkinElmer). This process was repeated in pairs for each sample, to ensure similar incubation and wash times for all samples analyzed across different experiments.
Amino acid affinities to Sestrin2 were determined by first normalizing the bound [^3H]-labeled amino acid concentrations across three separate binding assays performed with varying amounts of unlabeled amino acid competition. These values were plotted and fit to a hyperbolic equation ([…]) to estimate the IC50 value. Kd or Ki values were derived from the IC50 value using the equation: Kd or Ki=IC50/(1+([[^3H]Leucine])/Kd).

mTORC1 = mTORC1 signaling in HEK-293T cells (S6K1 phosphorylation immunoblot); assay type: cell-based, human; conditions: v-ATPase inhibition
Method: Immunoprecipitated proteins were denatured by the addition of 50 μl of sample buffer and boiling for 5 minutes as described (Kim et al., 2002), resolved by 8%-16% SDS-PAGE, and analyzed by immunoblotting using the appropriate antibody (antibodies to phospho-T389 S6K1, S6K1, Sestrin2, mTOR, Mios and FLAG all obtained from Cell Signaling Technology; antibodies to WDR24 and WDR59 were generously provided by Jianxin Xie at Cell Signaling Technology).
as §1

Sestrin2-GATOR2 complex = molecular target: T4, Sestrin2-GATOR2 complex (Homo sapiens, UniProt P58004); assay: Amino acids added directly to immunopurified Sestrin2-GATOR2 complexes (immunoblot); assay type: binding; conditions: for effect on the Sestrin2-GATOR2 interaction in vitro: 300 μM each, added directly to FLAG immunoprecipitates; for concentration acting on Sestrin2-GATOR2 complex, fold greater than leucine: added to purified complexes, relative to leucine
T4 construct: To isolate the FLAG-WDR24/endogenous-Sestrin2 complex; endogenous in cells; host or cells: HEK-293T cells stably expressing FLAG-WDR24; Sestrin2 and the other GATOR2 subunits are endogenous
T4 sequence (P58004 1-480): T1 sequence (P58004 1-480)
Method: We next tested if leucine acts directly on the Sestrin2-GATOR2 complex.
HEK-293T cells stably expressing FLAG-WDR24 were starved for all amino acids for 50 minutes, lysed and subjected to anti-FLAG immunoprecipitation as described previously. The GATOR2-Sestrin2 complexes immobilized on the agarose beads were washed twice in lysis buffer with 500 mM NaCl, as previously described, and then incubated for 10 minutes in 1 mL of cytosolic buffer with the indicated concentrations of individual amino acids. The amount of GATOR2 and Sestrin2 that remained bound was assayed by SDS-PAGE and immunoblotting as described previously.

Compound: CCC(=O)N1CCN(c2ccc(-n3c(=O)ccc4cnc5ccc(-c6cnc7ccccc7c6)cc5c43)cc2C(F)(F)F)CC1 [Torin1]
effect of pretreatment on the amino acid-induced decrease in the GATOR2-Sestrin2 interaction ([1]; 250 nM throughout starvation and restimulation): did not prevent the amino acid-induced decrease in the GATOR2-Sestrin2 interaction

Compound: N=C(N)NCCC[C@H](N)C(=O)O [arginine]
disruption of the Sestrin-GATOR2 interaction [2]: but not arginine or lysine, disrupts the Sestrin-GATOR2 interaction
binding of radiolabeled amino acid to Sestrin2 (Sestrin2; FLAG-Sestrin2 from HEK-293T, competed by excess unlabeled leucine): did not bind

Compound: C/C=C/[C@H]1O[C@@](O)([C@@H](C)[C@H](O)[C@H](C)[C@H]2OC(=O)/C(OC)=C/C(C)=C/[C@@H](C)[C@@H](O)[C@@H](CC)[C@@H](O)[C@H](C)C/C(C)=C/C=C/[C@@H]2OC)C[C@@H](O[C@H]2C[C@@H](O)[C@H](OC(N)=O)[C@@H](C)O2)[C@@H]1C [concanamycin A]
effect on mTORC1 signaling (mTORC1): decreased mTORC1 signaling
effect on the interaction between Sestrin2 and GATOR2 ([1]; in the absence of amino acids): reduced the interaction between Sestrin2 and GATOR2

concentration acting on Sestrin2-GATOR2 complex, fold greater than leucine (Sestrin2-GATOR2 complex): ~25 fold
Ki (Sestrin2): 616 ± 273 µM
affinity for Sestrin2, times lower than the affinity of leucine (Sestrin2): ~30 times
Compound: CC[C@H](C)[C@H](N)C(=O)O [isoleucine]
effect on the Sestrin2-GATOR2 interaction in vitro (Sestrin2-GATOR2 complex): had any effect on the Sestrin2-GATOR2 interaction

Compound: NCCCC[C@H](N)C(=O)O [lysine]
disruption of the Sestrin-GATOR2 interaction [2]: but not arginine or lysine, disrupts the Sestrin-GATOR2 interaction

concentration acting on Sestrin2-GATOR2 complex, fold greater than leucine (Sestrin2-GATOR2 complex): approximately 10 fold
Ki (Sestrin2): 354 ± 118 µM
affinity for Sestrin2, times lower than the affinity of leucine (Sestrin2): approximately 18 times
Compound: CSCC[C@H](N)C(=O)O [methionine]
effect on the Sestrin2-GATOR2 interaction in vitro (Sestrin2-GATOR2 complex): had any effect on the Sestrin2-GATOR2 interaction

Compound: CC(C)[C@H](N)C(=O)O [valine]
effect on the Sestrin2-GATOR2 interaction in vitro (Sestrin2-GATOR2 complex): had any effect on the Sestrin2-GATOR2 interaction

Compound: insulin
regulation of the Sestrin2-GATOR2 interaction by insulin treatment ([1]; serum-free 50 minutes, 1 μg/ml insulin 10 minutes): did not regulate the Sestrin2-GATOR2 interaction

Reference: US10168338B2, “Methods of identifying modulators of sestrin-gator-2 interaction for modulating mTORC1 activity” (Whitehead Institute for Biomedical Research, priority 2014, dated 2019)
